For one assay, the target named is T1, Nav 1.7 (Homo sapiens, UniProt Q15858).
T1 construct: expressed in transfected cells
T1 sequence (Q15858 whole entry): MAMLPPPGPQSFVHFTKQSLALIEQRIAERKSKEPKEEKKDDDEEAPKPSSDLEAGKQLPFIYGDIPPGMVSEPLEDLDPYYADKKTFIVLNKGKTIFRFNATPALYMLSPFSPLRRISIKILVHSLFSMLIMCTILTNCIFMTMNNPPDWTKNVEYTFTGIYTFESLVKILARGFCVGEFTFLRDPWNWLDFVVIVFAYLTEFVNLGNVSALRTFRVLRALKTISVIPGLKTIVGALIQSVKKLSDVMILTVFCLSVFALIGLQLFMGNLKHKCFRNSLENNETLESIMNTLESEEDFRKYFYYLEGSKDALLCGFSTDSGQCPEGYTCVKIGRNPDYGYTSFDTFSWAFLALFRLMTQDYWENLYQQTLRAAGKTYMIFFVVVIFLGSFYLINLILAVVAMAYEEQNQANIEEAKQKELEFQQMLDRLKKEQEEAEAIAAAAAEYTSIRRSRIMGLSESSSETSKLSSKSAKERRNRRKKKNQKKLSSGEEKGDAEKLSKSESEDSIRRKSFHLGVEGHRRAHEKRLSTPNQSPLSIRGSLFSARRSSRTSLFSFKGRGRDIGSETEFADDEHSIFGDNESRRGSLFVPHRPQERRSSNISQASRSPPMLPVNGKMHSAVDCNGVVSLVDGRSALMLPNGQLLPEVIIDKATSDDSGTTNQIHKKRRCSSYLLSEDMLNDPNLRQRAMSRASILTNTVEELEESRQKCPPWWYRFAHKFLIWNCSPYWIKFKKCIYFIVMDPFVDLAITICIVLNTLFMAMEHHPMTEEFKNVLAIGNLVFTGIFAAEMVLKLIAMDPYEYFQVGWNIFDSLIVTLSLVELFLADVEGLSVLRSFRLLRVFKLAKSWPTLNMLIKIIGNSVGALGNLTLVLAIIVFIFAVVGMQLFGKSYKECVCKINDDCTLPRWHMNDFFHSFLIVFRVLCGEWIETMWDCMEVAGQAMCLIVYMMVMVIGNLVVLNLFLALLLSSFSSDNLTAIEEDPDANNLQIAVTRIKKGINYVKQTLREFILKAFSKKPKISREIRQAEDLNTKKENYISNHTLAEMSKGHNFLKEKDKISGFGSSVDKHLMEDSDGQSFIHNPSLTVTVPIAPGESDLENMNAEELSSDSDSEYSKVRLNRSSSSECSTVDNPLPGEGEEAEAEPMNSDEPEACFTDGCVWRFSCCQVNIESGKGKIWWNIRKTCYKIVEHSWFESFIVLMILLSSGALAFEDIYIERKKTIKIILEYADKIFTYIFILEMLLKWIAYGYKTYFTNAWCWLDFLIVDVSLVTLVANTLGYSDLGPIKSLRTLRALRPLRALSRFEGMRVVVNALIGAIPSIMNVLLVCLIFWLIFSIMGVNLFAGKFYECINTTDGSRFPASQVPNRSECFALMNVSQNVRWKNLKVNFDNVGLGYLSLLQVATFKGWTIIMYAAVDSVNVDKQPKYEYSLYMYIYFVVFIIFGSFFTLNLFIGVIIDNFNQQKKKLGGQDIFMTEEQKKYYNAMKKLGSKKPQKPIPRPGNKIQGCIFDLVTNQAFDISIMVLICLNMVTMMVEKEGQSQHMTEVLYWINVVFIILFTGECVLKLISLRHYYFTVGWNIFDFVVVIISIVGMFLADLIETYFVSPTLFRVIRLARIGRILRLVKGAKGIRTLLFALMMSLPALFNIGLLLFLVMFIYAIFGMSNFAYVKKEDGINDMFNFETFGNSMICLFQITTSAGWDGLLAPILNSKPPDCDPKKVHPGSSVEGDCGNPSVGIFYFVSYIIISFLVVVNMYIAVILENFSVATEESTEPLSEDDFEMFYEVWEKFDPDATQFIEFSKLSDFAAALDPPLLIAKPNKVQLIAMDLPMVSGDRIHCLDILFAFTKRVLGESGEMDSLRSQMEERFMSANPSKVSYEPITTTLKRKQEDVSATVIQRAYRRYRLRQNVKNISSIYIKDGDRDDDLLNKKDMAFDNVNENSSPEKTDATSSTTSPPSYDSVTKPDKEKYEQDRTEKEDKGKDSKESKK
In words: Whole-cell voltage clamp electrophysiology, automated patch clamp (marker c in Table of Examples). It is filed as cell-based. The following applies: marker c = Automated patch clamp data; read-out: Nav 1.7 activity. The method, boiled down:
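Human NaV1.7 currents were recorded by whole-cell automated patch clamp, on IonWorks Quattro or another automated platform, typically in perforated-patch configuration. The stimulus protocol was designed to probe block mainly of the inactivated state, with a typical sweep stepping from about −65 mV holding to −10 mV, then −100 mV.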
Consider `CN(c1ccccc1)c1nc(N)nc(-c2noc(C(=O)N3CCC(COCC4CC4)CC3)n2)n1` [Example 459, 6-[5-({4-[(cyclopropylmethoxy)methyl]piperidin-1-yl}carbonyl)-1,2,4-oxadiazol-3-yl]-2-N-methyl-2-N-phenyl-1,3,5-triazine-2,4-diamine], for which the IC50 is 3250 nM.

As to `CN(c1ccccc1)c1nc(N)nc(-c2noc(C3CCC(N)CC3)n2)n1` (stereo not drawn) [Example 422, 6-[5-(4-Aminocyclohexyl)-1,2,4-oxadiazol-3-yl]-2-N-methyl-2-N-phenyl-1,3,5-triazine-2,4-diamine], the IC50 was found to be 9430 nM.

Take `CN(c1ccccc1)c1nc(N)nc(-c2noc(-c3ccc(OC4CCOCC4)nc3)n2)n1` [Example 361, 2-N-methyl-6-{5-[6-(oxan-4-yloxy)pyridin-3-yl]-1,2,4-oxadiazol-3-yl}-2-N-phenyl-1,3,5-triazine-2,4-diamine]: the IC50 is 273 nM.

In the case of `Nc1nc(Nc2ccccc2)nc(-c2noc(-c3cccnc3OCC(F)(F)F)n2)n1` [Example 502, 2-N-phenyl-6-{5-[2-(2,2,2-trifluoroethoxy)pyridin-3-yl]-1,2,4-oxadiazol-3-yl}-1,3,5-triazine-2,4-diamine], the IC50 was over 8950 nM.

Consider `Nc1nc(Nc2ccccc2)nc(-c2noc(C(=O)NC3CCc4ccccc43)n2)n1` (stereo not drawn) [Example 244, 3-[4-amino-6-(phenylamino)-1,3,5-triazin-2-yl]-N-(2,3-dihydro-1H-inden-1-yl)-1,2,4-oxadiazole-5-carboxamide], for which the IC50 turned out to be 2970 nM.

As to `CN(c1ccccc1)c1nc(N)nc(-c2noc(-c3cnccn3)n2)n1` [Example 468, 2-N-methyl-2-N-phenyl-6-[5-(pyrazin-2-yl)-1,2,4-oxadiazol-3-yl]-1,3,5-triazine-2,4-diamine], the IC50 was 8910 nM.

Turning to `CN(c1nc(N)nc(-c2noc(-c3ccc(OCC(F)(F)F)nc3)n2)n1)c1ccccc1F` [Example 408, 2-N-(2-fluorophenyl)-2-N-methyl-6-{5-[6-(2,2,2-trifluoroethoxy)pyridin-3-yl]-1,2,4-oxadiazol-3-yl}-1,3,5-triazine-2,4-diamine], the IC50 was 139 nM.

Consider `Nc1nc(Nc2ccccc2)nc(-c2noc(C(=O)N3CCC(OCC(F)(F)F)CC3)n2)n1` [Example 457, 2-N-phenyl-6-(5-{[4-(2,2,2-trifluoroethoxy)piperidin-1-yl]carbonyl}-1,2,4-oxadiazol-3-yl)-1,3,5-triazine-2,4-diamine], for which the IC50 came to 1300 nM.

In the case of `CN(c1ccccc1)c1nc(N)nc(-c2noc(-c3ccc(NCC(F)(F)F)cn3)n2)n1` [Example 471, 2-N-methyl-2-N-phenyl-6-(5-{5-[(2,2,2-trifluoroethyl)amino]pyridin-2-yl}-1,2,4-oxadiazol-3-yl)-1,3,5-triazine-2,4-diamine], the IC50 turned out to be 731 nM.

`Nc1nc(Nc2ccccc2)nc(-c2noc(N3C[C@@H]4[C@@H](COCCC(F)(F)F)[C@@H]4C3)n2)n1` [Example 394, 2-N-phenyl-6-{5-[6-[(3,3,3-trifluoropropoxy)methyl]-3-azabicyclo[3.1.0]hexan-3-yl]-1,2,4-oxadiazol-3-yl}-1,3,5-triazine-2,4-diamine]: the IC50 came to 664 nM.

Turning to `COCCN(c1ccccc1)c1nc(N)nc(-c2noc(N3CC(Oc4ccccc4)C3)n2)n1` [Example 436, 2-N-(2-Methoxyethyl)-6-[5-(3-phenoxyazetidin-1-yl)-1,2,4-oxadiazol-3-yl]-2-N-phenyl-1,3,5-triazine-2,4-diamine], the IC50 turned out to be 171 nM.

`CN(c1ccccc1)c1nc(N)nc(-c2noc(N3CCC(S(=O)(=O)CC(F)(F)F)CC3)n2)n1` [Example 365, 2-N-methyl-2-N-phenyl-6-(5-{4-[(2,2,2-trifluoroethane)sulfonyl]piperidin-1-yl}-1,2,4-oxadiazol-3-yl)-1,3,5-triazine-2,4-diamine]: the IC50 is over 8460 nM.

Regarding `CN(c1ccccc1)c1nc(N)nc(-c2noc(N3CCC(OCc4ccccc4)CC3)n2)n1` [Example 338, 6-{5-[4-(benzyloxy)piperidin-1-yl]-1,2,4-oxadiazol-3-yl}-2-N-methyl-2-N-phenyl-1,3,5-triazine-2,4-diamine], the IC50 is 597 nM.

As for `CN(c1ccccc1)c1nc(N)nc(-c2noc(-c3ccc(SCC4CC4)nc3)n2)n1` [Example 452, 6-(5-{6-[(cyclopropylmethyl)sulfanyl]pyridin-3-yl}-1,2,4-oxadiazol-3-yl)-2-N-methyl-2-N-phenyl-1,3,5-triazine-2,4-diamine], the IC50 was determined as 61 nM.

On to `Nc1nc(Nc2ccccc2)nc(-c2noc(NC3CCCCC3)n2)n1` [Example 242, 6-[5-(cyclohexylamino)-1,2,4-oxadiazol-3-yl]-2-N-phenyl-1,3,5-triazine-2,4-diamine], for which the IC50 came out at 5370 nM.

On to `CN(c1ccccc1)c1nc(N)nc(-c2noc(-c3ccc(Cl)nc3)n2)n1` [Example 418, 6-[5-(6-chloropyridin-3-yl)-1,2,4-oxadiazol-3-yl]-2-N-methyl-2-N-phenyl-1,3,5-triazine-2,4-diamine], for which the IC50 is 1640 nM.

Consider `CN(c1ccccc1)c1nc(N)nc(-c2noc(-c3ncccc3NC3CCC3)n2)n1` [Example 488, 6-{5-[3-(cyclobutylamino)pyridin-2-yl]-1,2,4-oxadiazol-3-yl}-2-N-methyl-2-N-phenyl-1,3,5-triazine-2,4-diamine], for which the IC50 was found to be 838 nM.

Still in this assay, the particulars now being: marker c: Automated patch clamp data; read-out: Nav 1.7 activity.
Turning to `CCN(c1ccccc1)c1nc(N)nc(-c2noc(-c3ccc(F)cc3Cl)n2)n1` [Example 193, 6-[5-(2-chloro-4-fluorophenyl)-1,2,4-oxadiazol-3-yl]-2-N-ethyl-2-N-phenyl-1,3,5-triazine-2,4-diamine], the IC50 turned out to be 83 nM.

For the compound `COc1ccccc1-c1nc(-c2nc(N)nc(N(C)c3cccc(C)c3)n2)no1` [Example 92, 6-[5-(2-Methoxy-phenyl)-[1,2,4]oxadiazol-3-yl]-N-methyl-N-m-tolyl-[1,3,5]triazine-2,4-diamine], the IC50 stood at 511 nM.

`CNC(=O)c1ccc(-c2nc(-c3nc(N)nc(N(C)c4ccccc4)n3)no2)s1` [Example 75, 5-{3-[4-Amino-6-(methyl-phenyl-amino)-[1,3,5]triazin-2-yl]-[1,2,4]oxadiazol-5-yl}-thiophene-2-carboxylic acid methylamide]: the IC50 is 1190 nM.

Take `CC(C)SCC1CCN(c2nc(-c3nc(N)nc(N(C)c4ccccc4)n3)no2)CC1` [Example 177, 2-N-methyl-2-N-phenyl-6-(5-{4-[(propan-2-ylsulfanyl)methyl]piperidin-1-yl}-1,2,4-oxadiazol-3-yl)-1,3,5-triazine-2,4-diamine]: the IC50 came to 306 nM.

Turning to `Nc1nc(Nc2ccccc2)nc(-c2noc(N3CCC(COCC(F)(F)F)CC3)n2)n1` [Example 174, 2-N-Phenyl-6-(5-{4-[(2,2,2-trifluoroethoxy)methyl]piperidin-1-yl}-1,2,4-oxadiazol-3-yl)-1,3,5-triazine-2,4-diamine], the IC50 was 340 nM.

For `CN(c1ccccc1)c1nc(N)nc(-c2noc(N3CCC(COc4ccccc4)CC3)n2)n1` [Example 166, 2-N-methyl-6-{5-[4-(phenoxymethyl)piperidin-1-yl]-1,2,4-oxadiazol-3-yl}-2-N-phenyl-1,3,5-triazine-2,4-diamine], the IC50 came to 60 nM.

For `COc1ccc(-c2nc(-c3nc(N)nc(N(C)c4ccccc4)n3)no2)c(OC)c1` [Example 77, 6-[5-(2,4-Dimethoxy-phenyl)-[1,2,4]oxadiazol-3-yl]-N-methyl-N-phenyl-[1,3,5]triazine-2,4-diamine], the IC50 was determined as 246 nM.

Source of the values: US8895733B2 (Novartis AG, priority 2010, dated 2014).
